Test results as given in patent US5648366A, “Substituted pyrrolidin-3-yl-alkyl-piperidines” (Merrell Pharmaceuticals Inc., priority 1995, dated 1997).

Columns and labels:
[1] = target: T1, human jejunal NK2 receptor (Homo sapiens, UniProt P21452); test: Antagonism of iodinated tachykinin (125I-neurokinin A) binding to NK2 receptor in HSKR-1 cells
T1 construct: expressed in transfected cells; host or cells: HSKR-1 cells (mouse 3T3 fibroblasts)
T1 sequence (P21452 1-398): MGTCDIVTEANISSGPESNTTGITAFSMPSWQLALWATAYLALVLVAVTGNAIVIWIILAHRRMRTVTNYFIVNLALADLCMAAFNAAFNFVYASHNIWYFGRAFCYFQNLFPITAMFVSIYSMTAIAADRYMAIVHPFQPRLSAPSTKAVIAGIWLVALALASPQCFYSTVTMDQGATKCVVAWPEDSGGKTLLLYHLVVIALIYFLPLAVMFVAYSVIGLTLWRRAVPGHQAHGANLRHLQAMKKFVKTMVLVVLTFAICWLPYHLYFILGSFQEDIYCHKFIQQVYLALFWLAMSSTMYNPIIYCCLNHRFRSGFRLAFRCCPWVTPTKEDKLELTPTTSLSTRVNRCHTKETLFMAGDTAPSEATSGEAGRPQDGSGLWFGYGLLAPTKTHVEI
Experimental: (§1) ANTAGONISM OF IODINATED TACHYKININ BINDING TO NK1 AND NK2 RECEPTORS BY PUTATIVE ANTAGONISTS
(§2) The NK1 receptor affinity of proposed tachykinin antagonists was evaluated in guinea pig lungs (Keystone Biologicals, Cleveland, Ohio), affinity for the NK2 receptor evaluated in HSKR-1 cells (which are mouse 3T3 fibroblasts expressing the human jejunal NK2 receptor) and NK-3 receptor affinity was evaluated in freshly collected guinea pig cerebral cortex. Tissues or cells were homogenized with a Polytron in 15 volumes of 50 mM Tris-HCl buffer (pH 7.4, 4° C.) and centrifuged. The pellet was resuspended in Tris-HCl buffer and was centrifuged; the pellet was washed twice by resuspension. The final pellet was resuspended at a concentration of 40 mg/ml for tissues (guinea pig lung and cerebral cortex) and 20 mg/ml for cells in incubation buffer and remained at room temperature for at least 15 min prior to use. […] Filter bound radioactivity was quantitated in a gamma counter. […] Specific binding was calculated by subtracting nonspecific binding from total binding. Competition of iodinated SP, NKA, or eledoisin binding by test compounds or standards was expressed as a percentage of this maximum competition. […]

[2] = target: T2, NK-3 receptor (Cavia porcellus, UniProt P30098); test: Antagonism of iodinated tachykinin (125I-eledoisin) binding to NK3 receptor in guinea pig cerebral cortex
T2 construct: freshly collected guinea pig cerebral cortex; from tissue; host or cells: guinea pig cerebral cortex membranes
T2 sequence (P30098 1-440): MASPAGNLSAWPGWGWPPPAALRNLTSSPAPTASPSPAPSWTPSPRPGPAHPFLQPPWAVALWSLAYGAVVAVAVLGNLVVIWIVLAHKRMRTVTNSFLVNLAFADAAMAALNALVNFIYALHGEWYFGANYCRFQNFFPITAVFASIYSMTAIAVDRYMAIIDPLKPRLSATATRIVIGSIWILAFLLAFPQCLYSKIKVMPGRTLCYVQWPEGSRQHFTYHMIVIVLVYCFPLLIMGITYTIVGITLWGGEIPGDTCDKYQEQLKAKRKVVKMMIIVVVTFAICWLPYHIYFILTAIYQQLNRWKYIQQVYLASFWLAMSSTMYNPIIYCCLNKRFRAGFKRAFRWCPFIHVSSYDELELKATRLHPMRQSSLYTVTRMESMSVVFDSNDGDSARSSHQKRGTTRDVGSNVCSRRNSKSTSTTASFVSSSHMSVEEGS
Experimental: as §1, §2

COc1cc(C(=O)N2CCC(CCN3CCC(C(N)=O)(c4ccccc4)CC3)(c3ccc(Cl)c(Cl)c3)C2)cc(OC)c1OC (centres unmarked) [Example 3, 1-[2-[3-(3,4-dichloro-phenyl)-1-(3,4,5-trimethoxy-benzoyl)-pyrrolidin-3-yl]-ethyl]-4-phenyl-piperidine-4-carboxylic acid amide]
affinity for NK2 receptors (in words) [1]: high affinity | affinity for NK3 receptors (in words) [2]: high affinity
